Laboratory results as given in patent publication US20230202989A1, “COMPOUNDS” (JANSSEN PHARMACEUTICA NV, priority 2020, published 2023).

How the values were obtained:
IL-1β = experiment: PBMC assay: inhibition of IL-1β release after LPS stimulation (MSD); assay type: cell-based; details: Homo sapiens, PBMC, 6 h, human PBMCs, 100 ng/ml LPS for 6 hrs, MSD, 96 well plates; read-out: IL1β IC50
Protocol: Peripheral venous blood s collected from health individuals and human peripheral blood mononuclear cells (PBMCs) ere isolated from blood by Ficoll Histopaque (Sigma-Aldrich, A0561) density gradient centrifugation. After isolation, PBMCs were stored in liquid nitrogen for later use. Upon thawing, PBMC cell viability was determined in growth medium (RPMI media supplemented with 10% fetal bovine serum, 1% Pen-Strep and 1% L-glutamine). […] PBMCs were added at a density of 7.5×10^4 cells per well and incubated for 30 min in a 5% CO2 incubator at 37° C. LPS stimulation was performed by addition of 100 ng/ml LPS (final concentration, Invivogen, tlrl-smlps) for 6 hrs followed by collection of cellular supernatant and the analysis of IL-1β (μM) and TNF cytokines levels (μM) via MSD technology according to manufacturers' guidelines (MSD, K151A0H).
(§1) The IC50 values (for IL-1β) and EC50 values (TNF) were obtained on compounds of the invention/examples, and are depicted in the following table: […]

TNF = experiment: PBMC assay: TNF cytokine levels after LPS stimulation (MSD); assay type: cell-based; details: Homo sapiens, PBMC, 6 h, human PBMCs, 100 ng/ml LPS for 6 hrs
Protocol: Peripheral venous blood s collected from health individuals and human peripheral blood mononuclear cells (PBMCs) ere isolated from blood by Ficoll Histopaque (Sigma-Aldrich, A0561) density gradient centrifugation. After isolation, PBMCs were stored in liquid nitrogen for later use. Upon thawing, PBMC cell viability was determined in growth medium (RPMI media supplemented with 10% fetal bovine serum, 1% Pen-Strep and 1% L-glutamine). Compounds were spotted in a 1:3 serial dilution in DMSO and diluted to the final concentration in 30 μl medium in 96 well plates (Falcon, 353072). PBMCs were added at a density of 7.5×10^4 cells per well and incubated for 30 min in a 5% CO2 incubator at 37° C. LPS stimulation was performed by addition of 100 ng/ml LPS (final concentration, Invivogen, tlrl-smlps) for 6 hrs followed by collection of cellular supernatant and the analysis of IL-1β (μM) and TNF cytokines levels (μM) via MSD technology according to manufacturers' guidelines (MSD, K151A0H).
as §1

Row | Compound | IC50 (IL-1β) [µM] | EC50 (TNF) [µM]
1 | CO[C@H]1C[C@@H](NC(=O)Cn2nc(C(C)C)c3cc(C(F)(F)F)ccc3c2=O)C1 [Final Cpd X116] | 2.09 | > 20
2 | CC(C)c1nn(CC(=O)Nc2ccncn2)c(=O)c2ccc(C#N)cc12 [X-1061] | > 20 | > 20
3 | CCc1nn(CC(=O)N[C@H]2CC[C@H](O)CC2)c(=O)c2ccc(C)cc12 [Final Cpd 26, trans-2-(6-methyl-4-ethyl-1-oxo-phthalazin-2-yl)-N-(4-hydroxycyclohexyl)acetamide] | > 10 | > 10
4 | CC(C)c1nn(CC(=O)Nc2ccc3c(C#N)ncn3c2)c(=O)c2ccc(C(F)(F)F)cc12 [Final Cpd X88] | 0.924 | > 20
5 | CC(C)c1nn(CC(=O)Nc2cc(Br)c3nncn3c2)c(=O)c2ccc(C(F)(F)F)cc12 [Final Cpd X52, N-(8-Bromo-[1,2,4]triazolo[4,3-a]pyridin-6-yl)-2-(4-isopropyl-1-oxo-6-(trifluoromethyl)phthalazin-2(1H)-yl)acetamide] | 0.442 | > 20
6 | CC(C)c1nn(CC(=O)Nc2ccc3c(c2)[nH]c(=O)n3C)c(=O)c2ccc(C(F)(F)F)cc12 [Final Cpd X5] | 0.064 | > 20
7 | CC(C)c1nn(CC(=O)Nc2ccc3nncn3c2)c(=O)c2ccc(C(C)(C)O)cc12 [X-1045] | 3.76 | > 20
8 | CC(C)c1nn(CC(=O)Nc2ccncn2)c(=O)c2ccc(Br)cc12 [Final Cpd 38] | < 0.025 | > 10
9 | CC(C)c1nn(CC(=O)Nc2ccc3nncn3n2)c(=O)c2ccc(C(F)(F)F)c(F)c12 [Final Cpd X3] | 0.051 | 4.01
10 | CC(C)c1nn(CC(=O)Nc2ccnnc2)c(=O)c2ccc(C(F)(F)C(F)(F)F)cc12 [X-1053] | 3.18 | > 20
11 | CC(C)(F)c1nn(CC(=O)Nc2ccc3nncn3c2)c(=O)c2ccc(C(F)(F)F)cc12 [Final Cpd X136] | 3.77 | > 20
12 | CC(C)c1nn(CC(=O)Nc2ccc3nccn3c2)c(=O)c2ccc(C(F)(F)F)cc12 [Final Cpd X31] | 0.233 | > 20
13 | CC(C)c1ccc2c(=O)n(CC(=O)Nc3ccc4nncn4c3)nc(C(C)C)c2c1 [Final Cpd 33] | < 0.12 | > 10
14 | CC(O)c1nn(CC(=O)N[C@H]2C[C@@](C)(O)C2)c(=O)c2ccc(C(F)(F)F)cc12 (some centres unmarked) [Final Cpd X75] | 0.818 | > 20
15 | CCc1nn(CC(=O)Nc2cccnc2)c(=O)c2ccccc12 [Final Cpd 13] | > 20 | > 20
16 | Cc1ncc2ccc(NC(=O)Cn3nc(C(C)C)c4cc(C(F)(F)F)ccc4c3=O)cn12 [Final Cpd X48] | 0.398 | > 20
17 | CC(O)c1nn(CC(=O)Nc2ccn(C(C)C)n2)c(=O)c2ccc(Br)cc12 (centres unmarked) [X-1079, 2-(6-bromo-4-(1-hydroxyethyl)-1-oxophthalazin-2(1H)-yl)-N-(1-isopropyl-1H-pyrazol-3-yl)acetamide] | 9.79 | > 20
18 | CC(C)c1nn(CC(=O)N[C@H]2C[C@@](C)(O)C2)c(=O)c2ccc(C(F)(F)F)cc12 [Final Cpd 25] | 0.058 | 15.4
19 | CC(C)c1nn(CC(=O)Nc2ccc(C(F)F)nn2)c(=O)c2ccc(C(F)(F)F)cc12 [Final Cpd X176] | > 20 | > 20
20 | CC(C)c1nn(CC(=O)Nc2ccc3cn(C)nc3c2)c(=O)c2ccc(C(F)(F)F)cc12 [Final Cpd X123] | 2.7 | > 20
21 | COC(C)(C)c1ccc2c(=O)n(CC(=O)Nc3ccncn3)nc(C(C)C)c2c1 [X-1059] | 2.42 | > 20
22 | CC(C)c1nn(CC(=O)Nc2cnn(C)c(=O)c2)c(=O)c2ccc(C(F)(F)F)cc12 [Final Cpd X151] | 7.45 | > 20

Row | Compound | IC50 (IL-1β) [µM] | EC50 (TNF) [µM]
23 | CC(C)c1nn(CC(=O)Nc2ccc3cnn(C(F)F)c3c2)c(=O)c2ccc(C(F)(F)F)cc12 [Final Cpd X146] | 5.72 | > 20
24 | CC(C)c1nn(CC(=O)NC2(C)CC(F)(F)C2)c(=O)c2ccc(C(F)(F)F)cc12 [Final Cpd X126] | 2.94 | > 20
25 | C[C@]1(O)C[C@@H](NC(=O)Cn2nc(C3CC3)c3cc(Br)ccc3c2=O)C1 [X-1022] | 0.057 | > 20
26 | CC(C)c1nn(CC(=O)N[C@@H]2COC[C@H](O)C2)c(=O)c2ccc(C(F)(F)F)cc12 (mixture of isomers) [Final Cpd X157] | 9.81 | > 20
27 | CC(C)c1nn(CC(=O)Nc2ccc(I)nn2)c(=O)c2ccc(C(F)(F)F)cc12 [Final Cpd X154] | 3.09 | > 20
28 | Cc1nnc2n1CC(NC(=O)Cn1nc(C(C)C)c3cc(C(F)(F)F)ccc3c1=O)CC2 (centres unmarked) [Final Cpd X68] | 0.728 | > 20
29 | CC(C)c1nn(CC(=O)Nc2ccc3nncn3c2)c(=O)c2ccc(C(F)(F)F)cc12 [Final Cpd 8] | 0.076 | 13.7
30 | CC(C)c1nn(CC(=O)N[C@@H]2CC[C@@](C)(O)C2)c(=O)c2ccc(C(F)(F)F)cc12 [Final Cpd X110] | 1.64 | > 20
31 | CO[C@H]1C[C@H](NC(=O)Cn2nc(C(C)C)c3cc(C(F)(F)F)ccc3c2=O)C1 [Final Cpd X105] | 1.52 | > 20
32 | CC(C)c1nn(CC(=O)N[C@H]2CC[C@@](C)(O)CC2)c(=O)c2ccc(C(F)(F)F)cc12 [Final Cpd X46] | 0.388 | > 20
33 | CCc1nn(CC(=O)Nc2ccncn2)c(=O)c2ccc(Br)cc12 [Final Cpd 2, 2-(6-bromo-4-ethyl-1-oxo-phthalazin-2-yl)-N-pyrimidin-4-yl-acetamide] | 0.19 | > 10
34 | CC(C)c1nn(CC(=O)NC2CCC(C)(C)OC2)c(=O)c2ccc(C(F)(F)F)cc12 (centres unmarked) [Final Cpd X128] | 2.95 | > 20
35 | CC(C)c1nn(CC(=O)Nc2ccc3nncn3c2)c(=O)c2ccc(C(F)(F)C(F)(F)F)cc12 [X-1052] | 1.26 | > 20
36 | CC(C)c1nn(CC(=O)Nc2ccc3cnnn3c2)c(=O)c2ccc(C(F)(F)F)cc12 [Final Cpd X101] | 1.28 | > 20
37 | CCc1nn(CC(=O)Nc2ccncn2)c(=O)c2ccc(C(C)C)cc12 [Final Cpd 6] | 0.45 | > 10
38 | Cn1nc(NC(=O)Cn2nc(C3CC3)c3cc(Br)ccc3c2=O)ccc1=O [X-1024] | 0.497 | > 20
39 | Cc1cc2nccn2cc1NC(=O)Cn1nc(C(C)C)c2cc(C(F)(F)F)ccc2c1=O [Final Cpd X167] | 17.8 | > 20
40 | CC(C)c1nn(CC(=O)N[C@@H]2CCCC[C@H]2O)c(=O)c2ccc(C(F)(F)F)cc12 [Final Cpd X98] | 1.15 | > 20
41 | CC(C)c1nn(CC(=O)Nc2ccn3ccnc3n2)c(=O)c2ccc(C(F)(F)F)cc12 [Final Cpd X127] | 2.94 | > 20
42 | CC(C)c1nn(CC(=O)N[C@H]2C[C@@](C)(O)C2)c(=O)c2ccc(N(C)C)cc12 [X-1047] | 1.57 | > 20
43 | CC(C)c1nn(CC(=O)Nc2ncc3c(ncn3C)n2)c(=O)c2ccc(C(F)(F)F)cc12 [Final Cpd X80] | 0.866 | > 20
